Laboratory results taken from publication PMC7956560, “New 3-Aryl-2-(2-thienyl)acrylonitriles with High Activity Against Hepatoma Cells” (International Journal of Molecular Sciences, 2021).

How the values were obtained:
[1] = test system: human HepG2 hepatoblastoma cells; experiment: Growth inhibition, crystal violet staining, HepG2; format: cell-based; conditions: 48 h incubation, mean ± SD, read-out: Anti-proliferative activity IC50, HepG2
Protocol: (§1) The well-differentiated p53 wild-type human hepatoblastoma cell line HepG2 (ATCC# 8065) and the highly differentiated p53 mutated human hepatocellular carcinoma cell line Huh-7 (JCRB#0403) were grown in RPMI 1640 medium supplemented with 10% fetal bovine serum and 100 U/mL penicillin and […] streptomycin. Murine AML-12 hepatocytes were obtained from ATCC (CRL-2254) and grown in DMEM/F-12 Glutamax medium supplemented with 10% fetal bovine serum, 10 µg/mL insulin, 5.5 µg/mL transferrin, 5 ng/mL selenium (Gibco ITS-G 100X) and 40 ng/mL dexamethasone (Sigma-Aldrich). All cell lines were incubated in a 37 °C, 5% CO2, 95% humidified atmosphere.
(§2) Treatment-induced changes in cell number were evaluated by crystal violet staining, as previously described. Briefly, 1.500 cells per well were seeded in 96-well plates for 24 h at 37 °C, 5% CO2. For the experiments with HepG2 and Huh-7 cell lines, cells were incubated with rising concentrations (0–20 µM) of the new compounds (1a–1o) for 48 h. AML12-cells were treated with compounds 1a, 1b, 1c, 1e, 1i and 1j for 48 h and at concentrations ranging from 0.5–64 µM. Thereafter, the cells were fixed with 1% glutaraldehyde and stained with 0.1% crystal violet (Sigma-Aldrich). The unbound dye was removed by rinsing with water. Bound crystal violet was solubilized with 0.2% Triton X-100 (Sigma-Aldrich). Light extinction of crystal violet, which increases linearly with cell number, was analyzed at 570 nm using an ELISA-Reader (Dynex Technologies, Denkendorf, Germany). All experiments were carried out in duplicate or triplicate.

[2] = test system: human Huh-7 HCC cells; experiment: Growth inhibition, crystal violet staining, Huh-7; format: cell-based; conditions: 48 h incubation, mean ± SD, read-out: Anti-proliferative activity IC50, Huh-7
Protocol: as §1, §2

[3] = test system: non-malignant murine AML-12 hepatocytes; experiment: Growth inhibition, crystal violet staining, AML-12; format: cell-based; conditions: for IC50 against AML-12 hepatocytes relative to hepatoma cells: AML-12 vs hepatoma cells (HepG2, Huh-7), 48 h; for IC50: Mus musculus, AML12, 48 h incubation, mean ± SD, read-out: Anti-proliferative activity IC50, AML-12
Protocol: as §1, §2

[4] = test system: HepG2 cells; experiment: Colony-formation assay; format: cell-based, human; conditions: 1, 5, 10 µM, 14 days
Protocol: HepG2 cells were seeded in 6-well plates at a density of 300 cells/well and allowed to attach overnight. […] Then, the plates were washed twice with PBS, fixed with 4% formaldehyde for 1 h, and stained with 0.5% crystal violet for 3 min. Excessive crystal violet was washed out and the colonies were counted under the microscope. A colony was defined as a cell aggregate with 50 or more cells. Representative images were taken with a kappa digital camera system (Kappa Optronics GmbH, Germany). A total of n = 3 experiments were performed, and significance was tested by one-way ANOVA assays.

[5] = test system: HepG2 cells; experiment: LDH release assay (unspecific cytotoxicity); format: cell-based, human; conditions: HepG2, 0.5 and 10 µM, 12 or 24 h
Protocol: Unspecific cytotoxicity induced by treatment with 0.5 µM and 10 µM of 1a, 1b, 1c and sorafenib (LC Laboratories, Woburn, MA, USA) was determined by measuring the release of lactate dehydrogenase (LDH) from HepG2 cells into the supernatant after 12 and 24 h (Cytotoxicity Detection KitPLUS LDH, Roche Diagnostics GmbH, Mannheim, Germany). The supernatant of treated samples was collected, and adherent non-treated cells were lysed with 2% Triton X-100 for 10 min to determine the maximum LDH release. All samples were mixed with catalyst and dye solution for 30 min, resulting in the formation of formazan dye proportional to LDH enzyme activity. The absorbance was measured at 490/630 nm using an ELISA reader (Dynex Technologies, Denkendorf, Germany) and cytotoxicity was determined by subtracting the percentage of LDH release under control conditions of those from treated samples. Experiments were performed in duplicate and data are given as mean percentage changes ± SD as compared to controls of n = 3 experiments.

[6] = test system: caspase-3 activity of HepG2 cells; experiment: Apoptosis-specific caspase-3 activity; format: cell-based, human; conditions: 24 h; for caspase-3 activity (in words): HepG2, 1 and 10 µM
Protocol: Changes in caspase-3 activity were measured by the cleavage of the fluorogenic substrate AC-DEVD-AMC (EMD Millipore, Billerica, MA, USA), as described previously. After 24 h of incubation with 1a, 1b, 1c, 1e and sorafenib (1 and 10 µM) the cells were harvested and lysed with lysis buffer. Subsequently, the lysates were incubated for 1 h at 37 °C with a substrate solution containing 20 μg/mL AC-DEVD-AMC, 20 mM HEPES, 10% glycerol and 2 mM DTT at pH 7.5. Substrate cleavage was measured fluorometrically using a Varioskan Flash Fluorometer (Thermo Fisher Scientific, Waltham, MA, USA; filter sets: ex 360/40 nm, em 460/10 nm). n = 3 independent measurements were performed in triplicate, and data are given as the mean percentage increase ± SD above control, which was set 100%.

[7] = biological target: T1, CLK1 (Homo sapiens, UniProt P49759); experiment: Enzymatic kinase assay (Eurofins KinaseProfiler); format: biochemical; conditions: 10 µM compound, cell-free
T1 construct: purchased Eurofins KinaseProfiler service (Eurofins, France)
T1 sequence (P49759 whole entry): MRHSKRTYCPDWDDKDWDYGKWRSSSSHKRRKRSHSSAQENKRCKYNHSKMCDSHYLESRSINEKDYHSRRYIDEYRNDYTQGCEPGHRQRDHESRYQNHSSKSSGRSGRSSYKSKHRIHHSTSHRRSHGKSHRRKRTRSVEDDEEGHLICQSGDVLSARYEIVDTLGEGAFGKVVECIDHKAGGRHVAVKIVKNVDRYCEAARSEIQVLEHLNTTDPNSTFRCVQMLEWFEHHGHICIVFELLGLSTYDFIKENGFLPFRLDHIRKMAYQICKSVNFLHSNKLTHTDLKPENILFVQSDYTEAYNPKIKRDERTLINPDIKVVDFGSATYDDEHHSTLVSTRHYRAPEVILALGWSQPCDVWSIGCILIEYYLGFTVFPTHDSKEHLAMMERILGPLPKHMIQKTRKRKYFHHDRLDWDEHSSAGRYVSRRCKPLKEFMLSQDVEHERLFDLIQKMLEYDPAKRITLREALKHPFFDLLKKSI
Protocol: (§3) The kinase inhibiting potency of compound 1a, 1b and 1c (10 µM) was screened in a cell-free kinase assay, which consisted of a custom panel of 43 human protein kinases for 1c (listed in Figure 5A), as well as a subpanel of six kinases for 1a and 1b (Figure 5B). The initial panel was chosen to screen the lead compound 1c based on the union of two strategies. A total of 29 kinases were selected based on the correlated results of three in silico target prediction methods including structure- as well as ligand-based techniques and 20 kinases because of their relevance for HCC (note that six kinases were part of both strategies).
(§4) The assay was performed by Eurofins KinaseProfilerTM service (Eurofins, France) and the determination of enzymatic activity was assessed as previously described. Additionally, an IC50 determination of compound 1c against the VEGFR-2 was performed with a concentration range of 0.003 to 30 µM.

[8] = biological target: T2, VEGFR-2 (KDR) (Homo sapiens, UniProt P35968); experiment: Enzymatic kinase assay (Eurofins KinaseProfiler); format: biochemical; conditions: 10 µM compound, cell-free
T2 construct: purchased Eurofins KinaseProfiler service (Eurofins, France)
T2 sequence (P35968 20-1356): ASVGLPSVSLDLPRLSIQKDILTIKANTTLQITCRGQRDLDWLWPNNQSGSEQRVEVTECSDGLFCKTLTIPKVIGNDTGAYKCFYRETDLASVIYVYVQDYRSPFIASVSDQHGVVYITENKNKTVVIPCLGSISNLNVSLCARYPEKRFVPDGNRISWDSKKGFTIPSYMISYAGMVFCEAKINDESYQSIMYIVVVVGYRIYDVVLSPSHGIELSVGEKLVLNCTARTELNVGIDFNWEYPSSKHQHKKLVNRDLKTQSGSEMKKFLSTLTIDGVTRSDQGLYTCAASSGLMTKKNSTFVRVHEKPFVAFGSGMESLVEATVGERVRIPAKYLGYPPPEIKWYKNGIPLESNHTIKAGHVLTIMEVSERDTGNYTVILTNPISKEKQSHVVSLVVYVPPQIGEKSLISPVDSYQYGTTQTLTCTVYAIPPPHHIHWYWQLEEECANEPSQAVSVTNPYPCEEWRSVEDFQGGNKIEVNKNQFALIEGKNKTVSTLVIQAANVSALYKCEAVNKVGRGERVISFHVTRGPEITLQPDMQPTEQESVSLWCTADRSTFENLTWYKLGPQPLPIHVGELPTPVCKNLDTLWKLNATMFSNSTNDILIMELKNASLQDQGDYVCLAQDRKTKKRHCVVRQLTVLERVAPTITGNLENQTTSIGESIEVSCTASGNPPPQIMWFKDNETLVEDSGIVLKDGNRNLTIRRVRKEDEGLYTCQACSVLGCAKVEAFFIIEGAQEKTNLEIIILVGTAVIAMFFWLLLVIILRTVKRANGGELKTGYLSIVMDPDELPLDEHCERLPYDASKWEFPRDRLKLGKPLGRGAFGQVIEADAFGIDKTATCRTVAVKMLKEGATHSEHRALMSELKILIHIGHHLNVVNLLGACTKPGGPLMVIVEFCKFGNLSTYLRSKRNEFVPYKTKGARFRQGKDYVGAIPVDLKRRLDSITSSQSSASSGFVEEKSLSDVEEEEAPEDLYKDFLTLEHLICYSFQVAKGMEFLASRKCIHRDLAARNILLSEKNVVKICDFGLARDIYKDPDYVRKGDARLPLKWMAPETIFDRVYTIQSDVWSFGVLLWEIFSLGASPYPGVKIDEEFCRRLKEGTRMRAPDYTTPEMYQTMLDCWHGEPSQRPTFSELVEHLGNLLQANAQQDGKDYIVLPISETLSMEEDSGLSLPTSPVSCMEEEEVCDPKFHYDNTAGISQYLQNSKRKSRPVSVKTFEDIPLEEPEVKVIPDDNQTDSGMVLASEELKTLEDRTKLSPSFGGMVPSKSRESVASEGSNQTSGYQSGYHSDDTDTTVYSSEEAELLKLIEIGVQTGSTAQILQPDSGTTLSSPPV
Protocol: as §3, §4

[9] = test system: HepG2-tumors grown on membranes of fertilized chicken eggs; experiment: Chorioallantoic membrane (CAM) assay; format: in vivo; conditions: for tumor reduction vs PBS-treated controls (in words): topical treatment 72 h, 1b 0–10 µM, 1c 0–2.5 µM, sorafenib 10 µM
Protocol: The chorioallantoic membrane (CAM) assay was performed as described previously. Fertilized chicken eggs (Gallus gallus) were obtained from commercial sources (Valo GmbH, Germany) and incubated in a humid environment at 38 °C. On day 3 of the egg development, a window was cut in the eggshell to access the developing vascular network of the CAM. At day 10 of chicken embryo development, a sterile silicon ring (10 mm diameter) was placed on the CAM and tumor plugs of 3 × 10^6 HepG2 cells in 20 µL Matrigel (BD Biosciences) with reduced growth factors were placed inside the silicon ring. After 24 h at 38 °C in an incubator, the tumor plaques attached and connected to the (tumor-)feeding CAM microvasculature. Then, the tumor plaques were topically treated with either PBS (negative control) or PBS containing rising concentrations of 1b (0–10 µM), 1c (0–2.5 µM) or sorafenib (10 μM) for 3 days. Tumor growth and viability of the embryo were controlled daily by stereo microscopy. After 72 h of treatment, the tumors were recovered for weighing and pictures were taken using a stereomicroscope equipped with a Kappa digital camera system (Kappa Optronics GmbH, Germany). For data analysis, the tumor weight of 1c-treated and untreated control tumors was determined and the mean weight of treated vs. untreated tumors of 11 eggs for each condition was calculated. Statistical significance evaluated by one-way ANOVA tests.

[10] = test system: Pim-1; conditions: cited from earlier work

SMILES	IC50 [1]	IC50 [2]	IC50 [3]	also measured
CN(C)c1ccc(C=C(C#N)c2cccs2)cc1 [Compound 1b]	0.72 ± 0.09 µM	0.67 ± 0.13 µM	2.72 ± 0.78 µM	IC50 against AML-12 hepatocytes relative to hepatoma cells [3]: up to 10 fold; effect on HepG2 colony formation (in words) [4]: significantly inhibited HepG2 colony formation; tumor reduction vs PBS-treated controls (in words) [9]: pronounced tumor reductions; tolerability, mortality and development of chicken embryos ([9]; treated vs untreated eggs): well tolerated; LDH release / unspecific cytotoxicity (in words) [5]: do not exert considerable unspecific cytotoxicity; caspase-3 activity compared with the other compounds (in words) ([6]; HepG2, 10 µM): comparably stronger increase in caspase-3 activity than the other compounds; caspase-3 activity (in words) [6]: dose-dependently induced caspase-3 activity; inhibition at 10 µM [8]: 86%
COc1cc(/C=C(\C#N)c2cccs2)ccc1O [Compound 1d]	> 20 µM	> 20 µM	–	–
COc1cc(/C=C(\C#N)c2cccs2)ccc1-c1ccccc1Cl [Compound 1f]	> 20 µM	> 20 µM	–	–
COCCOc1cc(/C=C(\C#N)c2cccs2)ccc1OC [Compound 1g, 2-[1-Cyano-2-[4-Methoxy-3-(2-methoxyethoxy)phenyl]-(E)-ethenyl}-thiophene]	> 20 µM	> 20 µM	–	–
COCCOc1ccc(/C=C(\C#N)c2cccs2)cc1OCCOC [Compound 1h, 2-{1-Cyano-2-[3,4-bis(2-methoxyethoxy)phenyl]-(E)-ethenyl}-thiophene]	> 20 µM	> 20 µM	–	–
COCCOc1ccc(/C=C(\C#N)c2cccs2)cc1F [Compound 1k, 2-{1-Cyano-2-[3-fluoro-4-(2-methoxyethoxy)phenyl]-(E)-ethenyl}-thiophene]	> 20 µM	> 20 µM	–	–
COc1ccc(/C=C(\C#N)c2cccs2)cc1Br [Compound 1l, 2-[1-Cyano-2-(3-bromo-4-methoxyphenyl)-(E)-ethenyl]-thiophene]	13.9 ± 1.16 µM	–	–	–
N#C/C(=C\c1cccc(O)c1)c1cccs1 [Compound 1m, 2-[1-Cyano-2-(3-hydroxyphenyl)-(E)-ethenyl]-thiophene]	> 20 µM	> 20 µM	–	–
COc1ccc(/C=C(\C#N)c2cccs2)cc1OCCCN1CCOCC1 [Compound 1n, 2-{1-Cyano-2-[4-methoxy-3-(3-morpholinopropoxy)phenyl]-(E)-ethenyl}-thiophene]	> 20 µM	> 20 µM	–	–
Cn1ccc2cc(/C=C(\C#N)c3cccs3)ccc21 [Compound 1o, 2-{1-Cyano-2-[N-methylindol-5-yl]-(E)-ethenyl}-thiophene]	> 20 µM	> 20 µM	–	–
CNC(=O)c1cc(Oc2ccc(NC(=O)Nc3ccc(Cl)c(C(F)(F)F)c3)cc2)ccn1 [Sorafenib, sorafenib, reference compound]	2.73 ± 0.76 µM	2.5 ± 0.14 µM	–	tumor reduction vs PBS-treated controls (in words) [9]: pronounced tumor reductions; LDH release / unspecific cytotoxicity (in words) [5]: do not exert considerable unspecific cytotoxicity; caspase-3 activity (in words) [6]: dose-dependently induced caspase-3 activity; Pim-1 inhibitory activity (in words) [10]: no Pim-1 inhibitory activity

Continued, in another order:

IC50 [1]	IC50 [2]	SMILES	IC50 [3]	also measured
1.46 ± 0.21 µM	1.2 ± 0.42 µM	COc1ccc(C=C(C#N)c2cccs2)cc1 [Compound 1a]	6.79 ± 0.32 µM	IC50 against AML-12 hepatocytes relative to hepatoma cells [3]: up to 10 fold; effect on HepG2 colony formation (in words) [4]: significantly inhibited HepG2 colony formation; LDH release / unspecific cytotoxicity (in words) [5]: do not exert considerable unspecific cytotoxicity; caspase-3 activity (in words) [6]: dose-dependently induced caspase-3 activity; inhibition at 10 µM [7]: 68%; inhibition of VEGFR-2 (KDR) [8]: lacks any activity
1.3 ± 0.17 µM	1.85 ± 0.21 µM	COc1ccc(C=C(C#N)c2cccs2)cc1C [Compound 1e, 2-[1-Cyano-2-(3-methyl-4-methoxyphenyl)-(E)-ethenyl)]-thiophene]	14.8 ± 2.39 µM	IC50 against AML-12 hepatocytes relative to hepatoma cells [3]: up to 10 fold; effect on HepG2 colony formation (in words) [4]: significantly inhibited HepG2 colony formation; caspase-3 activity (in words) [6]: dose-dependently induced caspase-3 activity
9.3 ± 0.82 µM	11.8 ± 0.56 µM	CN1CCN(c2ccc(/C=C(\C#N)c3cccs3)cc2)CC1 [Compound 1i, 2-[1-Cyano-2-(4-N-methylpiperazin-1-ylphenyl)-(E)-ethenyl]-thiophene]	20.5 ± 1.25 µM	–
4.9 ± 1.54 µM	5.7 ± 1.2 µM	COc1ccc(/C=C(\C#N)c2cccs2)cc1F [Compound 1j, 2-[1-Cyano-2-(3-fluoro-4-methoxyphenyl)-(E)-ethenyl]-thiophene]	9.42 ± 0.91 µM	–
6.26 ± 1.18 µM	–	COc1ccc(C=C(C#N)c2cccnc2)cc1O [Compound 2, reference compound]	–	–
